This note sets out measurements from patent US10406207B2, “Peptide conjugates of GLP-1 receptor agonists and gastrin and their use” (priority 2010, dated 2019).

The structures appear in SMILES notation. Bridge positions count the residues as written; N and C are the ends. Square brackets hold non-standard residues; d marks the D form. Peptide text beside a SMILES is read from it. AEEA = NCCOCCOCC(=O)O

A short description of data set [1]: in vivo. Also on record: species or system C57Bl mice. The following applies: mouse, sc, 100 nmol/kg; for half-life: C57Bl. How it is done:
Two C57Bl mice were given a single subcutaneous dose of 100 nmol/kg of each peptide. […] At each time point, samples from two mice were taken. Plasma samples were analyzed after solid phase extraction (SPE) by liquid chromatography mass spectrometry (LC-MS/MS).

Data set [2] concerns the target T1, human GLP-1 R (Homo sapiens, UniProt P43220).
T1 construct: expressed in transfected cells
Kind of data set: Human GLP-1 receptor efficacy assay (cAMP induction, FlashPlate). The data set is classed as cell-based. The settings on record: Table 2; read-out: hGLP-1 R EC50. The method, then: On the day of analysis, growth medium was removed and the cells were washed once with 200 μl Tyrode buffer [Tyrode's Salts (9.6 g/l), 10 mM HEPES, pH 7.4]. […] The reaction was stopped by addition of 25 μl 0.5 M HCl and incubated on ice for 60 min.

Data set [3] deals with T2, human CCK-B R (Homo sapiens, UniProt P32239).
T2 construct: expressed in transfected cells
T2 sequence (P32239 1-447): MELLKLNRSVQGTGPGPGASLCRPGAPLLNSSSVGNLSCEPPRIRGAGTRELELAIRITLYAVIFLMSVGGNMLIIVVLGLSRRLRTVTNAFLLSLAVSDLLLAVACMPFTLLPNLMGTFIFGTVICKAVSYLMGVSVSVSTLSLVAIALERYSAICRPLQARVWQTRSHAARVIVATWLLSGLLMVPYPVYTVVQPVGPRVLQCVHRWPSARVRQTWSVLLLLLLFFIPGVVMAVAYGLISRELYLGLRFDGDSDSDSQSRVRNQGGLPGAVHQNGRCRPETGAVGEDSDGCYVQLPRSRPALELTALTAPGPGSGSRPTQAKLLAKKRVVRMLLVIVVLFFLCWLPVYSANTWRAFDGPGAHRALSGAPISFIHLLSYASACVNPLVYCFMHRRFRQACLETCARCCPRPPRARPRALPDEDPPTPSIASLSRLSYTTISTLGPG
Kind of data set: Human CCK-B receptor efficacy assay (AlphaScreen SureFire p-ERK). The format is cell-based. The following applies: Table 2; read-out: hCCK-B R EC50. (In general: In Alpha technology, singlet oxygen from a donor bead excites a nearby acceptor bead.)
Description: CCK-B Receptor (CCK-B R) Efficacy Assay:
In vitro effects of peptide conjugates of the invention were estimated by measuring p-ERK (using the AlphaScreen™ SureFire p-ERK assay) in HEK293 cells stably expressing the human and mouse CCK-B R (high-affinity Gastrin receptor), respectively. The Gastrin receptor efficacy assays (AlphaScreen™ SureFire p-ERK assay) were performed as follows:
The CCK-B R expressing cells in question were seeded at 20,000 cells/well in 100 μl growth medium [DMEM, 10% FCS, Penicillin (100 IU/ml), Streptomycin (100 μg/ml)] in a 96-well plate coated with poly-D-lysine. The cells were incubated in an incubator (37° C., 5% 002) for two days.
The growth medium was changed to 80 μl of serum-free medium [DMEM, Penicillin (100 IU/ml), Streptomycin (100 μg/ml)] per well, and incubation of the cells was continued for 19 hours in the incubator (37° C., 5% CO2).
After 19 hours, 20 μl of serum-free medium containing one of 5 different concentrations of peptide conjugate was added (performed in triplicate for each concentration), and the cells were incubated for 5 min. at room temperature. • 2. The stimulation medium was discarded by quickly turning the plate upside down, and 60 μl 1× lysis buffer (from the SureFire assay kit) was added per well. • 3. The plate was shaken on a plate-shaker for 5 min and then placed on ice. • 4. SureFire P-ERK assay: 4 μl of each supernatant was transferred to a 384 well proxiplate (Perkin Elmer). • 5. 4 μl of each of the two control lysates (unstimulated and stimulated) were added to the proxiplate in duplicate. • 6. […] 7 μl of the latter reaction buffer+activation buffer+beads per well were added in the proxiplate, the mix being resuspended carefully before addition to the wells. • 7. The plate was incubated for 2 hours in a dark box in a 22° C. incubator. • 8. The plate was analyzed on an Envision™ light-emission plate reader (Perkin-Elmer) using the appropriate reading program (Perkin-Elmer).

T1 sequence (P43220 24-463): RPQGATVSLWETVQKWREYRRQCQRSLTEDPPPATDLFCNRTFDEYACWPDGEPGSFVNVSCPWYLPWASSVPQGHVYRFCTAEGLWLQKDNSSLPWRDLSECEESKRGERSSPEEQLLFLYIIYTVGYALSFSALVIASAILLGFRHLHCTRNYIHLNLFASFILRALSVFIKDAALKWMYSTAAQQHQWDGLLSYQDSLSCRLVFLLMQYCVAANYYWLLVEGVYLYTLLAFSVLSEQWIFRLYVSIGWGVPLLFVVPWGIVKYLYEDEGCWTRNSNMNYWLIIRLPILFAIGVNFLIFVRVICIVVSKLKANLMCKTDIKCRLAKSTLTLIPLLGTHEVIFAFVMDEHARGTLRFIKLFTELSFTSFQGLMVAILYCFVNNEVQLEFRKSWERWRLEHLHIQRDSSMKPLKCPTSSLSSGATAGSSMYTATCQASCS

In data set [1], `CC[C@H](C)[C@@H]1NC(=O)[C@H](Cc2ccccc2)NC(=O)[C@H](CC(C)C)NC(=O)[C@@H](NC(=O)[C@@H](NC(=O)[C@H](C)NC(=O)[C@H](CCC(=O)O)NC(=O)[C@H](CCC(=O)O)NC(=O)[C@H](CCC(=O)O)NC(=O)[C@H](CCSC)NC(=O)[C@H](CCC(N)=O)NC(=O)[C@H](CCCCN)NC(=O)[C@H](CO)NC(=O)[C@H](CC(C)C)NC(=O)[C@H](CC(=O)O)NC(=O)[C@H](CO)NC(=O)[C@@H](NC(=O)[C@H](Cc2ccccc2)NC(=O)[C@@H](NC(=O)CNC(=O)[C@H](CCC(=O)O)NC(=O)CNC(=O)[C@@H](N)Cc2c[nH]cn2)[C@@H](C)O)[C@@H](C)O)C(C)C)CCCCNC(=O)CC[C@@H](C(=O)N[C@@H](Cc2c[nH]c3ccccc23)C(=O)N[C@@H](CC(C)C)C(=O)N[C@@H](CCCCN)C(=O)N[C@@H](CC(N)=O)C(=O)NCCOCCOCC(=O)NCCOCCOCC(=O)N[C@@H](Cc2ccc(O)cc2)C(=O)NCC(=O)N[C@@H](Cc2c[nH]c3ccccc23)C(=O)N[C@@H](CC(C)C)C(=O)N[C@@H](CC(=O)O)C(=O)N[C@@H](Cc2ccccc2)C(N)=O)NC1=O` [Compound 80, Side chain-cyclo([Lys20,Glu24]Exendin-4(1-28)-Peg3-Peg3-[Leu4]Gastrin6] (H-HGEGTFTSDLSKQMEEEAVKLFIEWLKN[AEEA][AEEA]YGWLDF-NH2; lactam 20-24) gave a half-life of 1.9 h. Moreover, the 50% effective concentration (EC50) was 0.032 nM in data set [2] and 4 nM in data set [3].

`CC[C@H](C)[C@H](NC(=O)[C@H](Cc1ccccc1)NC(=O)[C@H](CC(C)C)NC(=O)[C@H](CCCNC(=N)N)NC(=O)[C@@H](NC(=O)[C@H](C)NC(=O)[C@H](CCC(=O)O)NC(=O)[C@H](CCC(=O)O)NC(=O)[C@H](CCC(=O)O)NC(=O)[C@H](CCSC)NC(=O)[C@H](Cc1ccc(O)cc1)NC(=O)[C@H](CCCCN)NC(=O)[C@H](CO)NC(=O)[C@H](CC(C)C)NC(=O)[C@H](CC(=O)O)NC(=O)[C@H](CO)NC(=O)[C@@H](NC(=O)[C@H](Cc1ccccc1)NC(=O)[C@@H](NC(=O)CNC(=O)[C@H](CCC(=O)O)NC(=O)CNC(=O)[C@@H](N)Cc1c[nH]cn1)[C@@H](C)O)[C@@H](C)O)C(C)C)C(=O)N[C@@H](CCC(=O)O)C(=O)N[C@@H](Cc1ccccc1)C(=O)N[C@@H](CC(C)C)C(=O)N[C@@H](CCCCN)C(=O)NCCOCCOCC(=O)NCCOCCOCC(=O)N[C@@H](Cc1ccc(O)cc1)C(=O)NCC(=O)N[C@@H](Cc1c[nH]c2ccccc12)C(=O)N[C@@H](CC(C)C)C(=O)N[C@@H](CC(=O)O)C(=O)N[C@@H](Cc1ccccc1)C(N)=O` [Compound 75, [Tyr13,Phe25]Exendin-4(1-27)-Peg3-Peg3-[Leu4]Gastrin6] (H-HGEGTFTSDLSKYMEEEAVRLFIEFLK[AEEA][AEEA]YGWLDF-NH2): the half-life in data set [1] was 2.5 h. The EC50 in data set [2] came out at 0.035 nM; in data set [3] it was 8.4 nM.

Take `CC[C@H](C)[C@H](NC(=O)[C@H](Cc1ccccc1)NC(=O)[C@H](CC(C)C)NC(=O)[C@H](CCCNC(=N)N)NC(=O)[C@@H](NC(=O)[C@H](C)NC(=O)[C@H](CCC(=O)O)NC(=O)[C@H](CCC(=O)O)NC(=O)[C@H](CCC(=O)O)NC(=O)[C@H](CC(C)C)NC(=O)[C@H](Cc1ccc(O)cc1)NC(=O)[C@H](CCCCN)NC(=O)[C@H](CO)NC(=O)[C@H](CC(C)C)NC(=O)[C@H](CC(=O)O)NC(=O)[C@H](CO)NC(=O)[C@@H](NC(=O)[C@H](Cc1ccccc1)NC(=O)[C@@H](NC(=O)CNC(=O)[C@H](CCC(=O)O)NC(=O)CNC(=O)[C@@H](N)Cc1c[nH]cn1)[C@@H](C)O)[C@@H](C)O)C(C)C)C(=O)N[C@@H](CCC(=O)O)C(=O)N[C@@H](Cc1c[nH]c2ccccc12)C(=O)N[C@@H](CC(C)C)C(=O)N[C@@H](CCCCN)C(=O)NCCOCCOCC(=O)NCCOCCOCC(=O)N[C@@H](Cc1ccc(O)cc1)C(=O)NCC(=O)N[C@@H](Cc1c[nH]c2ccccc12)C(=O)N[C@@H](CC(C)C)C(=O)N[C@@H](CC(=O)O)C(=O)N[C@@H](Cc1ccccc1)C(N)=O` [Compound 74, [Tyr13,Leu14]Exendin-4(1-27)-Peg3-Peg3-[Leu4]Gastrin6] (H-HGEGTFTSDLSKYLEEEAVRLFIEWLK[AEEA][AEEA]YGWLDF-NH2): in data set [1], the half-life is 3.6 h; the “Half-life and exposure (in words)” value was “superior to the rest”. Further, the EC50 in data set [2] turned out to be 0.05 nM. Further, in data set [3], the EC50 came out at 8.4 nM.

What is called half-life is the time in which the quantity being followed falls by half. Low values mean rapid decline, high ones slow decline. For orientation: EC50 means the concentration at which the effect is half-maximal.
